Experiments:
[1] = test system: cDNA-expressed recombinant human cytochrome P450s and silensomes as well as human liver microsomes with selective chemical CYP inhibitors; parameters: method as in unpublished data; conditions: conducted in Hutch-Med DMPK department ref unpublished data; cited from earlier work
[2] = Metabolite profiling and identification in plasma, urine and feces (LC/RAM/MS); assay type: in vivo, human; conditions: for Plasma %AUC (percentage of total plasma radioactivity): AUC-pooled 0–72 h plasma; for Plasma %AUC (percentage of total plasma radioactivity) / Feces %Dose / Urine %Dose: mean of 6 subjects; for Feces %Dose: pooled 0–168 h feces, total in feces 62.08%; for Urine %Dose: pooled 0–72 h urine, total in urine 37.15%
Protocol: The plasma samples from six subjects were pooled individually according to the AUC method to obtain 6 plasma samples of 0–72 h ([Hop et al., 1998]). A portion of the proportionally mixed plasma sample was taken and added to a certain volume of acetonitrile (3×, v/v) for extraction, vortexed for 1 min, shaken for 10 min and then stored in a refrigerator at 4°C for 30 min, the mixture was removed and vortexed for 2 min and then centrifuged for 10 min at 10,000×g and 4°C. The residue from the extraction was firstly ultrasonically suspended using 1 mL of ultrapure water and then extracted using methanol (2×, v/v) and repeated twice. The organic solvent extracts were combined, blown dry with nitrogen and reconstituted with acetonitrile: ultrapure water (1:1), the reconstituted solution was centrifuged at 4°C and 10,000×g for 10 min, and the supernatant was used for radio-metabolite profiling.
The radioactivity in the organic solvent extract and the reconstitution solution was determined by LSC. The solid residue after extraction was dissolved by heating with 1N KOH solution and added to the scintillation solution to determine its radioactivity. All the final data were used to examine the recovery of radioactivity during plasma extraction.
The urine samples from the six subjects were mixed in the same volume percentage to obtain six 0–72 h urine samples. A portion of the proportionally mixed urine sample was centrifuged for 10 min at approximately 10,000×g and 4°C. Two samples were taken before and after centrifugation, and the radioactivity of the samples was determined by LSC, and the data obtained were used to calculate the recovery of radioactivity during the centrifugation process. A portion of the supernatant after centrifugation was used directly for radio-metabolite profiling.
The fecal samples from the six subjects were mixed with the same weight percentage to obtain 6 fecal homogenate samples of 0–168 h. A portion of the proportionally mixed fecal homogenate samples was taken and extracted by adding a volume of acetonitrile (3×, v/v), vortexed for 5 min at room temperature, sonicated for 5 min and then centrifuged for 10 min at 10,000 × g and 4°C. The residue of the extracted material was firstly sonicated and mixed using about 1 mL of ultrapure water before extracted using methanol (2×, v/v). The process was repeated twice and the organic extracts were combined, blown dry using nitrogen and then reconstituted with dimethyl sulfoxide: acetonitrile: ultrapure water (3:2:5), the reconstituted solution was centrifuged at 10,000×g at 4°C for 10 min and the supernatant was used for radio-metabolite profiling. […] LSC was used to determine the intensity of radioactivity contained in the organic solvent extract and in the reconstituted solution. The solid residue after extraction is fully combusted by an oxidative combustor, and the [^14C]carbon dioxide produced by combustion of the sample is captured with a scintillation solution to determine its radioactivity intensity. All final data were used to examine the extraction and recovery of radioactivity from fecal homogenate samples.
A high performance liquid chromatograph coupled with an online isotope detector and mass spectrometry (LC/RAM/MS) was used for the identification of radioactive metabolite profiles. The HPLC method consisted of an HPLC system (Shimadzu UFLC-20A-Lite), a chromatographic column (ACE Excel 3 C18, 150 × 4.6 mm id), mobile phase A (0.4% aqueous formic acid, pH = 3.2 adjusted with ammonia) and mobile phase B (acetonitrile) at a flow rate of 0.7 mL/min. The gradient was 0% B for the 0–5 min, 20% B from 15 min to 30 min, 22% B from 32 to 40 min, and 70%–100% B from 60 to 72 min. The column temperature was 28°C. […]

Row | Structure (SMILES) | enzyme involved in the formation of the metabolite from amdizalisib [1] | F: %Dose in feces (Figure 4) [2] | P: %AUC in plasma (Figure 4) [2] | Plasma %AUC (percentage of total plasma radioactivity) [2] | Feces %Dose [2] | %Dose in pooled feces ([2]; subject 01001) [%Dose] | %Dose in pooled feces ([2]; subject 01002) [%Dose] | %Dose in pooled feces ([2]; subject 01003) [%Dose] | %AUC in AUC-pooled plasma ([2]; subject 01004) [%AUC] | %Dose in pooled feces ([2]; subject 01004) [%Dose] | %AUC in AUC-pooled plasma ([2]; subject 01005) [%AUC] | %Dose in pooled feces ([2]; subject 01005) [%Dose] | %AUC in AUC-pooled plasma ([2]; subject 01006) [%AUC] | %Dose in pooled feces ([2]; subject 01006) [%Dose] | U: %Dose in urine (Figure 4) [2] | Urine %Dose [2] | further results
1 | C[C@H](Nc1ncnc(N)c1C#N)c1cc2ncc(Cl)n2nc1-c1ccc(O)cc1 [M406-1] | formed primarily by CYP2C9 | 5.06% | 0.12% | 0.12 %AUC | 5.06 %Dose | 4.78 | 5.18 | 5.65 | 0.16 | 6.15 | 0.26 | 4.03 | 0.27 | 4.54 | – | – | –
2 | C[C@H](Nc1nc(O)nc(N)c1C#N)c1cc2ncc(Cl)n2nc1-c1ccccc1 [M406-2] | aldehyde oxidase | 11.30% | 20.91% | 20.91 %AUC | 11.30 %Dose | 9.93 | 13.05 | 10.17 | 16.67 | 5.32 | 20.09 | 14.97 | 36.04 | 14.33 | 8.08% | 8.08 %Dose | contribution to amdizalisib metabolism ([2]; estimated from the metabolite amounts in excreta): around 20%; %AUC in AUC-pooled plasma ([2]; subject 01001): 16.31 %AUC; %Dose in pooled urine ([2]; subject 01001): 8.77 %Dose; %AUC in AUC-pooled plasma ([2]; subject 01002): 16.12 %AUC; %Dose in pooled urine ([2]; subject 01002): 9.03 %Dose; %AUC in AUC-pooled plasma ([2]; subject 01003): 20.20 %AUC; %Dose in pooled urine ([2]; subject 01003): 8.92 %Dose; %Dose in pooled urine ([2]; subject 01004): 7.29 %Dose; %Dose in pooled urine ([2]; subject 01005): 6.50 %Dose; %Dose in pooled urine ([2]; subject 01006): 7.98 %Dose
3 | CC(=O)c1cc2ncc(Cl)n2nc1-c1ccccc1 [M271] | – | + | + | detected by mass spectrometry, but could not be quantified and + | detected by mass spectrometry, but could not be quantified and + | – | – | – | – | – | – | – | – | – | + | detected by mass spectrometry, but could not be quantified and + | –
4 | C[C@H](Nc1ncnc(N)c1C(N)=O)c1cc2ncc(Cl)n2nc1-c1ccccc1 [M408] | – | 1.04% | + | detected by mass spectrometry, but could not be quantified and + | 1.04 %Dose | 0.40 | 0.91 | 2.11 | – | 0.69 | – | 1.53 | – | 0.60 | + | detected by mass spectrometry, but could not be quantified and + | –
